# Source: US7250410B2, “Cyclic nucleotide phosphodiesterase inhibitors, preparation and uses thereof” (Via Pharmaceuticals, Inc., priority 2001, dated 2007)
# pIC50: −log10 of the molar value.
# Target: PDE4
# Assay: Inhibition of PDE4, radioenzymatic phosphodiesterase assay
# Type: biochemical, bovine
# Settings: Table 1, formula (III); 1 μM cyclic AMP
# Description: A 3 g segment of bovine aortic media cut into pieces with scissors was homogenized with an ultra-turrax then a potter glass/glass homogenizer in 7 volumes by weight of buffer A containing a protease inhibitor cocktail (20 mM Tris-HCl, 0.25 M saccharose, 2 mM magnesium acetate, 1 mM dithiothreitol, 5 mM EGTA, 2000 U/ml aprotinin, 10 mg/l leupeptin and 10 mg/l soya trypsic inhibitor). The homogenizate was centrifuged at 105,000 g for 1 hour. […] The column was washed until there was no detectable absorption at 280 nm, then eluted with a linear gradient of NaCl (0–0.5 M) in buffer B. 3-ml fractions were collected and enzyme activity was determined under the conditions described hereinafter to localize the different enzymes PDE1, PDE3, PDE4 and PDE5, which were aliquoted and frozen at −80° C.
# The nucleoside formed was separated from the nucleotides by anion exchange chromatography. Nucleoside radioactivity was determined by liquid scintillation counting.
row,SMILES,pIC50
1,"COc1cc2c(cc1OC)C(c1ccc(-c3cccs3)cc1)=NN(C)C(=O)C2 [IIIau, 7,8-dimethoxy-3-methyl-1-[4-(2-thienyl)phenyl]-3,5-dihydro-4H-2,3-benzodiazepin-4-one]",5.42
2,"COc1cc2c(cc1OC)C(c1ccc(-c3cccc(C(C)=O)c3)cc1)=NN(C)C(=O)C2 [IIIak, 1-[4-(3-acetylphenyl)phenyl]-7,8-dimethoxy-3-methyl-3,5-dihydro-4H-2,3-benzodiazepin-4-one]",5.74
3,"COc1ccc(-c2ccc(C3=NN(C)C(=O)Cc4cc(OC)c(OC)cc43)cc2)cc1 [IIIao, 7,8-dimethoxy-1-[4-(4-methoxyphenyl)phenyl]-3-methyl-3,5-dihydro-4H-2,3-benzodiazepin-4-one]",5.77
4,"COc1cc2c(cc1OC)C(c1ccc(Br)cc1)=NN(C)C(=O)C2 [IIIan, 1-(4-bromophenyl)-7,8-dimethoxy-3-methyl-3,5-dihydro-4H-2,3-benzodiazepin-4-one]",5.74
5,"COc1cc2c(cc1OC)C(c1ccc(-c3ccccc3C)cc1)=NN(C)C(=O)C2 [IIIaq, 7,8-dimethoxy-3-methyl-1-[4-(2-methylphenyl)phenyl]-3,5-dihydro-4H-2,3-benzodiazepin-4-one]",5.72
6,"COc1cc2c(cc1OC)C(c1ccc(-c3cc(C(F)(F)F)cc(C(F)(F)F)c3)cc1)=NN(C)C(=O)C2 [IIIaw, 1-{4-[3,5-bis-(trifluoromethyl)phenyl]phenyl}-7,8-dimethoxy-3-methyl-3,5-dihydro-4H-2,3-benzodiazepin-4-one]",4.80

# Same assay, conditions: Table 1, formula (III); compound at 10 μM
row,SMILES,PDE4 percentage inhibition at 10 μM [%]
1,"CCN1N=C(c2ccccc2)c2cc(OC)c(OC)cc2CC1=O [IIIag, 3-ethyl-7,8-dimethoxy-1-phenyl-3,5-dihydro-4H-2,3-benzodiazepin-4-one]",36

# Same assay, conditions: Table 2, formula (XXII); compound at 10 μM
row,SMILES,PDE4 percentage inhibition at 10 μM [%]
1,"CCCCN(Cc1ccccc1)C(=O)OC1N=C(c2ccccc2)c2cc(OC)c(OC)cc2NC1=O [XXIIav, (7,8-dimethoxy-5-phenyl-2-oxo-2,3-dihydro-1H-1,4-benzodiazepin-3-yl)benzyl(S)-butylcarbamate]",23
2,"COc1ccc2c(c1)C(c1cccc(C(F)(F)F)c1)=NCC(=O)N2 [XXIIae, 7-methoxy-5-[3-(trifluoromethyl)phenyl]-1,3-dihydro-2H-1,4-benzodiazepin-2-one]",21
3,"COc1cc2c(cc1OC)C(c1ccccc1)=NC(CCSC)C(=O)N2 (centres unmarked) [XXIIat, 7,8-dimethoxy-3-(2-methylthioethyl)-5-phenyl-1,3-dihydro-2H-1,4-benzodiazepin-2-one]",29
4,"O=C1CN=C(c2ccc(Br)cc2)c2ccc(Br)cc2N1 [XXIIab, 8-bromo-5-(4-bromophenyl)-1,3-dihydro-2H-1,4-benzodiazepin-2-one]",10

# Same assay, conditions: Table 3, formula (II); 1 μM cyclic AMP
row,SMILES,pIC50
1,"COc1cc2c(cc1OC)N(C)C(=O)CN=C2c1cc2ccccc2o1 [IIag, 5-(2-benzo[b]furyl)-7,8-dimethoxy-1-methyl-1,3-dihydro-1,4-benzodiazepin-2-one]",5.32
2,"CCN1C(=O)C(Cc2cccc(-c3ccccc3)c2)N=C(c2ccccc2)c2cc(OC)c(OC)cc21 (centres unmarked) [IIcu, 3-(1,1′-biphenyl-3-ylmethyl)-1-ethyl-7,8-dimethoxy-5-phenyl-1,3-dihydro-2H-1,4-benzodiazepin-2-one]",5.32
3,"CCN1C(=O)C(C(O)(c2ccccc2)c2ccccc2)N=C(c2ccccc2)c2cc(OC)c(OC)cc21 (centres unmarked) [IIby, 7,8-dimethoxy-3-(diphenylhydroxymethyl)-1-ethyl-5-phenyl-1,3-dihydro-2H-1,4-benzodiazepin-2-one]",5.09
4,"CCN1C(=O)C(Cc2ccccc2Br)N=C(c2ccccc2)c2cc(OC)c(OC)cc21 (centres unmarked) [IIcc, 3-(2-bromobenzyl)-1-ethyl-7,8-dimethoxy-5-phenyl-1,3-dihydro-2H-1,4-benzodiazepin-2-one]",5.30
5,"CCN1C(=O)CN=C(c2ccc(Br)cc2)c2cc(OC)c(OC)cc21 [IIbl, 5-(4-bromophenyl)-1-ethyl-7,8-dimethoxy-1,3-dihydro-2H-1,4-benzodiazepin-2-one]",4.82
6,"CCN1C(=O)C(Cc2cccc(Br)c2)N=C(c2ccccc2)c2cc(OC)c(OC)cc21 (centres unmarked) [IIcj, 3-(3-bromobenzyl)-1-ethyl-7,8-dimethoxy-5-phenyl-1,3-dihydro-2H-1,4-benzodiazepin-2-one]",5.42
7,"COc1cc2c(cc1OC)N(C)C(=O)CN=C2c1cccs1 [IIak, 7,8-dimethoxy-1-methyl-5-(2-thienyl)-1,3-dihydro-1,4-benzodiazepin-2-one]",4.80
8,"CCOc1cc2c(cc1OC)C(c1ccccc1)=NC(c1ccccc1)C(=O)N2CC (centres unmarked) [IIdk, 3,5-diphenyl-8-ethoxy-1-ethyl-7-methoxy-1,3-dihydro-2H-1,4-benzodiazepin-2-one]",5.96
9,"COc1cc2c(cc1OC)C(c1ccccc1)=NC(c1ccccc1CCNC(C)=O)C(=O)N2 (centres unmarked) [IIcm, N-[2-(7,8-dimethoxy-2-oxo-5-phenyl-2,3-dihydro-1H-1,4-benzodiazepin-3-yl)benzyl]methylacetamide]",5.72
10,"CCN1C(=O)C(Cc2ccccc2C)N=C(c2ccccc2)c2cc(OC)c(OC)cc21 (centres unmarked) [IIcz, 1-ethyl-7,8-dimethoxy-3-(2-methylbenzyl)-5-phenyl-1,3-dihydro-2H-1,4-benzodiazepin-2-one]",5.36
11,"CCOc1cc2c(cc1OCC)N(Cc1ccccc1)C(=O)CN=C2c1ccccc1 [IIbj, 1-benzyl-7,8-diethoxy-5-phenyl-1,3-dihydro-2H-1,4-benzodiazepin-2-one]",5.19
12,"COc1cc2c(cc1OC)N(C)C(=O)CN=C2c1ccc(Br)cc1 [IIba, 5-(4-bromophenyl)-7,8-dimethoxy-1-methyl-1,3-dihydro-2H-1,4-benzodiazepin-2-one]",4.77

# Same assay, conditions: Table 3, formula (II); compound at 10 μM
row,SMILES,PDE4 percentage inhibition at 10 μM [%]
1,"CCN1C(=O)C(CC(N)=O)N=C(c2ccccc2)c2cc(OC)c(OC)cc21 (centres unmarked) [IIcw, 2-(1-ethyl-7,8-dimethoxy-2-oxo-5-phenyl-2,3-dihydro-1H-1,4-benzodiazepin-3-yl)acetamide]",9.4
2,"CCN1C(=O)C(C2(O)CCN(Cc3ccccc3)CC2)N=C(c2ccccc2)c2cc(OC)c(OC)cc21 (centres unmarked) [IIcl, 3-(1-benzyl-4-hydroxypiperidin-4-yl)-1-ethyl-7,8-dimethoxy-5-phenyl-1,3-dihydro-2H-1,4-benzodiazepin-2-one]",4.3
3,"COc1cc2c(cc1OC)N(C)C(=O)CN=C2c1ccc(F)cc1 [IIad, 7,8-dimethoxy-5-(4-fluorophenyl)-1-methyl-1,3-dihydro-2H-1,4-benzodiazepin-2-one]",23
4,"CCOC(=O)CN1C(=O)CN=C(c2ccccc2)c2cc(OCC)c(OCC)cc21 [IIbi, ethyl (7,8-diethoxy-2-oxo-5-phenyl-2,3-dihydro-1H-1,4-benzodiazepin-1-yl)acetate]",23.1
5,"CCN1C(=O)CN=C(c2cccc(C#Cc3ccccc3)c2)c2cc(OC)c(OC)cc21 [IIbw, 1-ethyl-7,8-dimethoxy-5-[3-(phenylethynyl)phenyl]-1,3-dihydro-2H-1,4-benzodiazepin-2-one]",46.1
6,"COc1cc2c(cc1OC)N(C)C(=O)CN=C2c1ccc(C(C)=O)cc1 [IIai, 5-(4-acetylphenyl)-7,8-dimethoxy-1-methyl-1,3-dihydro-1,4-benzodiazepin-2-one]",39
7,"CCN1C(=O)C(Cc2cc(Br)cc(Br)c2)N=C(c2ccccc2)c2cc(OC)c(OC)cc21 (centres unmarked) [IIbx, 3-(3,5-dibromobenzyl)-7,8-dimethoxy-1-ethyl-5-phenyl-1,3-dihydro-2H-1,4-benzodiazepin-2-one]",18
8,"COc1cc2c(cc1OC)N(CCO)C(=O)CN=C2c1ccccc1 [IIcx, 7,8-dimethoxy-1-(2-hydroxyethyl)-5-phenyl-1,3-dihydro-2H-1,4-benzodiazepin-2-one]",9.9
9,"CCN1C(=O)CN=C(c2ccccc2)c2cc(OC)c(OC)cc21 [IIbd, 1-ethyl-7,8-dimethoxy-5-phenyl-1,3-dihydro-2H-1,4-benzodiazepin-2-one]",34.3
10,"COc1cc2c(cc1OC)C(c1ccccc1)=NC(c1ccccc1CNC(C)=O)C(=O)N2 (centres unmarked) [IIcf, N-[2-(7,8-dimethoxy-2-oxo-5-phenyl-2,3-dihydro-1H-1,4-benzodiazepin-3-yl)benzyl]acetamide]",21
11,"COc1cc2c(cc1OC)N(C)C(=O)CN=C2c1ccc(N(C)C)cc1 [IIaj, 7,8-dimethoxy-5-(4-N,N-dimethylaminophenyl)-1-methyl-1,3-dihydro-2H-1,4-benzodiazepin-2-one]",7.9
12,"CCN1C(=O)CN=C(c2ccccc2)c2cc(O)c(O)cc21 [IIbk, 1-ethyl-7,8-dihydroxy-5-phenyl-1,3-dihydro-2H-1,4-benzodiazepin-2-one]",14.2
13,"COc1cc2c(cc1OC)N(C)C(=O)CN=C2c1ccncc1 [IIae, 7,8-dimethoxy-1-methyl-5-(4-pyridyl)-1,3-dihydro-2H-1,4-benzodiazepin-2-one]",3.4
14,"COc1cc2c(cc1OC)N(C)C(=O)CN=C2c1cc(C(F)(F)F)cc(C(F)(F)F)c1 [IIaf, 7,8-dimethoxy-1-methyl-5-(3, 5 bistrifluoromethylphenyl)-1,3-dihydro-2H-1,4-benzodiazepin-2-one]",11.7

# Same assay, conditions: Table 3, formula (II); compound at 10 μM; 10 µM
row,SMILES,PDE4 percentage inhibition at 10 μM [%]
1,"CCN1C(=O)C(Cc2ccc(Cl)cc2)N=C(c2ccccc2)c2cc(OC)c(OC)cc21 (centres unmarked) [IIcn, 3-(4-chlorobenzyl)-1-ethyl-7,8-dimethoxy-5-phenyl-1,3-dihydro-2H-1,4-benzodiazepin-2-one]",45
